PubChem BioAssay (NCI)
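Assay format: 96-well plates, 48-hour exposure. TGI is the concentration that stops growth completely.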

Assays:
Assay in all cases: DTP human tumour cell line panel, 48 h
A549 NSCLC = tested on: A549 NSCLC
ACHN renal = tested on: ACHN renal
BT-549 breast = tested on: BT-549 breast
CAKI-1 renal = tested on: CAKI-1 renal
CCRF-CEM leukemia = tested on: CCRF-CEM leukemia
COLO 205 colon = tested on: COLO 205 colon
DU-145 prostate = tested on: DU-145 prostate
EKVX NSCLC = tested on: EKVX NSCLC
HCT-116 colon = tested on: HCT-116 colon
HCT-15 colon = tested on: HCT-15 colon
HL-60(TB) leukemia = tested on: HL-60(TB) leukemia
HOP-62 NSCLC = tested on: HOP-62 NSCLC
HS 578T breast = tested on: HS 578T breast
HT29 colon = tested on: HT29 colon
IGROV1 ovarian = tested on: IGROV1 ovarian
KM12 colon = tested on: KM12 colon
LOX IMVI melanoma = tested on: LOX IMVI melanoma
M14 melanoma = tested on: M14 melanoma
MALME-3M melanoma = tested on: MALME-3M melanoma
MCF7 breast = tested on: MCF7 breast
MDA-MB-435 = tested on: MDA-MB-435
MOLT-4 leukemia = tested on: MOLT-4 leukemia
NCI-H460 lung = tested on: NCI-H460 lung
NCI-H522 lung = tested on: NCI-H522 lung
NCI/ADR-RES ovarian = tested on: NCI/ADR-RES ovarian
OVCAR-3 ovarian = tested on: OVCAR-3 ovarian
OVCAR-4 ovarian = tested on: OVCAR-4 ovarian
OVCAR-5 ovarian = tested on: OVCAR-5 ovarian
OVCAR-8 ovarian = tested on: OVCAR-8 ovarian
PC-3 prostate = tested on: PC-3 prostate
SF-268 CNS = tested on: SF-268 CNS
SF-295 CNS = tested on: SF-295 CNS
SF-539 CNS = tested on: SF-539 CNS
SK-MEL-2 melanoma = tested on: SK-MEL-2 melanoma
SK-MEL-28 melanoma = tested on: SK-MEL-28 melanoma
SK-OV-3 ovarian = tested on: SK-OV-3 ovarian
SN12C renal = tested on: SN12C renal
SNB-19 CNS = tested on: SNB-19 CNS
SNB-75 CNS = tested on: SNB-75 CNS
SR leukemia = tested on: SR leukemia
T-47D breast = tested on: T-47D breast
TK-10 renal = tested on: TK-10 renal
U251 CNS = tested on: U251 CNS
UACC-257 melanoma = tested on: UACC-257 melanoma
UACC-62 melanoma = tested on: UACC-62 melanoma
UO-31 renal = tested on: UO-31 renal
786-0 renal = tested on: 786-0 renal
A498 renal = tested on: A498 renal
K-562 leukemia = tested on: K-562 leukemia
NCI-H226 lung = tested on: NCI-H226 lung
NCI-H23 lung = tested on: NCI-H23 lung
RPMI-8226 leukemia = tested on: RPMI-8226 leukemia
RXF 393 renal = tested on: RXF 393 renal
SK-MEL-5 melanoma = tested on: SK-MEL-5 melanoma
SW-620 colon = tested on: SW-620 colon

CN(CCCNC(=O)c1nn(-c2ccccc2)c2c1ccc1ccccc12)CCCNC(=O)c1nn(-c2ccccc2)c2c1ccc1ccccc12
TGI (A549 NSCLC): 2.85 µM
TGI (ACHN renal): 3.17 µM
TGI (BT-549 breast): 3.04 µM
TGI (CAKI-1 renal): 2.7 µM
TGI (CCRF-CEM leukemia): 0.628 µM
TGI (COLO 205 colon): 3.63 µM
TGI (DU-145 prostate): 3.92 µM
TGI (EKVX NSCLC): 3.1 µM
TGI (HCT-116 colon): 3.13 µM
TGI (HCT-15 colon): 3.16 µM
TGI (HL-60(TB) leukemia): 3.07 µM
TGI (HOP-62 NSCLC): 3.69 µM
TGI (HS 578T breast): > 100 µM
TGI (HT29 colon): 3.2 µM
TGI (IGROV1 ovarian): 2.87 µM
TGI (KM12 colon): 3.96 µM
TGI (LOX IMVI melanoma): 2.95 µM
TGI (M14 melanoma): 3.16 µM
TGI (MALME-3M melanoma): 3.47 µM
TGI (MCF7 breast): 3.32 µM
TGI (MDA-MB-435): 2.92 µM
TGI (MOLT-4 leukemia): 3.42 µM
TGI (NCI-H460 lung): 2.97 µM
TGI (NCI-H522 lung): 3.17 µM
TGI (NCI/ADR-RES ovarian): 3.53 µM
TGI (OVCAR-3 ovarian): 2.73 µM
TGI (OVCAR-4 ovarian): 3.02 µM
TGI (OVCAR-5 ovarian): 5.24 µM
TGI (OVCAR-8 ovarian): 3.38 µM
TGI (PC-3 prostate): 2.77 µM
TGI (SF-268 CNS): 3.39 µM
TGI (SF-295 CNS): 3.69 µM
TGI (SF-539 CNS): 3.62 µM
TGI (SK-MEL-2 melanoma): 3.15 µM
TGI (SK-MEL-28 melanoma): 3.01 µM
TGI (SK-OV-3 ovarian): 3.38 µM
TGI (SN12C renal): 3.32 µM
TGI (SNB-19 CNS): 3.29 µM
TGI (SNB-75 CNS): 2.88 µM
TGI (SR leukemia): 2.75 µM
TGI (T-47D breast): 3.78 µM
TGI (TK-10 renal): 3.58 µM
TGI (U251 CNS): 3.01 µM
TGI (UACC-257 melanoma): 3.65 µM
TGI (UACC-62 melanoma): 3.03 µM
TGI (UO-31 renal): 2.91 µM

Cc1c2c(n(C)c1C)C(=O)C1C(C2=O)C2(C)c3ccccc3C1(C)c1ccccc12 (stereo not given)
TGI (786-0 renal): > 100 µM
TGI (A498 renal): > 100 µM
TGI (ACHN renal): > 100 µM
TGI (BT-549 breast): > 100 µM
TGI (CCRF-CEM leukemia): > 100 µM
TGI (COLO 205 colon): > 100 µM
TGI (DU-145 prostate): > 100 µM
TGI (EKVX NSCLC): > 100 µM
TGI (HCT-116 colon): > 100 µM
TGI (HCT-15 colon): > 100 µM
TGI (HL-60(TB) leukemia): > 100 µM
TGI (HOP-62 NSCLC): > 100 µM
TGI (HS 578T breast): > 100 µM
TGI (HT29 colon): > 100 µM
TGI (IGROV1 ovarian): > 100 µM
TGI (K-562 leukemia): > 100 µM
TGI (KM12 colon): > 100 µM
TGI (LOX IMVI melanoma): > 100 µM
TGI (M14 melanoma): > 100 µM
TGI (MALME-3M melanoma): > 100 µM
TGI (MCF7 breast): > 100 µM
TGI (MDA-MB-435): > 100 µM
TGI (MOLT-4 leukemia): > 100 µM
TGI (NCI-H226 lung): > 100 µM
TGI (NCI-H23 lung): > 100 µM
TGI (NCI-H460 lung): > 100 µM
TGI (NCI/ADR-RES ovarian): > 100 µM
TGI (OVCAR-3 ovarian): > 100 µM
TGI (OVCAR-5 ovarian): > 100 µM
TGI (OVCAR-8 ovarian): > 100 µM
TGI (PC-3 prostate): > 100 µM
TGI (RPMI-8226 leukemia): > 100 µM
TGI (RXF 393 renal): > 100 µM
TGI (SF-268 CNS): > 100 µM
TGI (SF-295 CNS): > 100 µM
TGI (SF-539 CNS): > 100 µM
TGI (SK-MEL-2 melanoma): > 100 µM
TGI (SK-MEL-28 melanoma): > 100 µM
TGI (SK-MEL-5 melanoma): > 100 µM
TGI (SK-OV-3 ovarian): > 100 µM
TGI (SNB-19 CNS): > 100 µM
TGI (SNB-75 CNS): > 100 µM
TGI (SR leukemia): > 100 µM
TGI (SW-620 colon): > 100 µM
TGI (T-47D breast): > 100 µM
TGI (TK-10 renal): > 100 µM
TGI (UACC-257 melanoma): > 100 µM
TGI (UACC-62 melanoma): > 100 µM
TGI (UO-31 renal): > 100 µM
